In patent publication US9555055B2, “Use of albiflorin and metabolites thereof” (priority 2010, dated 2017):
Where a name gives a salt, the structure may show the parent alone. Marks after values point to notes of the source that are not given here.

Experiments:
Type in all cases: in vivo
5-HT1A receptor = assay: mRNA expression of 5-HT1A receptor in hippocampus of chronic stress rats (RT-PCR); details: 2.5 mg/kg/d, 21 days
Description: After having free access to food and being deprived water for 24 h, 72 normal rats were administered with 1% sucrose aqueous solution, and measured the consumption within 1 h. According to the consumption of sucrose aqueous solution, the rats were randomly divided into six groups, 12 […] per group, i.e. normal control group, model group, positive drug Prozac group (2.5 mg/kg/d), high-dose group (70 mg/kg/d, comprising 11.2 mg of albiflorin), medium-dose group (35 mg/kg/d, comprising 5.6 mg of albiflorin), and low-dose group (17.5 mg/kg/d, comprising 2.8 mg of albiflorin) of Paeonia lactiflora Pall extract. When being modeled, the rats were simultaneously administered with drugs, once a day, for consecutive 21 days. […]
According to the instruction of TRIzol reagent, the total RNAs were extracted by one-step guanidine-isothiocyanate method. The integrity of the extracted total RNAs was confirmed by 0.9% agarose gel electrophoresis, and the content and purity of RNA were determined by UV spectrophotometer. […]
30 μl of 5-HT1A-R-amplified product and 10 μl of Actin-amplified product were mixed, and then subjected to 1.5% agarose gel electrophoresis. […] The ratio of IOD5-HTR/IODActin was the relative quantification of the amplified products, and the intergroup comparisons were carried out.

ICR mice [1] = assay: Spontaneous actions in mice; details: 14 days after administration
Description: (§1) 140 ICR mice (15-17 g, male, purchased from Institute of Laboratory Animal Sciences, CAMS & PUMC) were randomly divided into 10 groups (14 mice per group) as follows: paeoniflorin group at a dose of 100 mg/kg, paeoniflorin group at a dose of 50 mg/kg, paeoniflorin group at a dose of 25 mg/kg, paeoniflorin group at a dose of 12.5 mg/kg, albiflorin group at a dose of 28 mg/kg, albiflorin group at a dose of 14 mg/kg, albiflorin group at a dose of 7 mg/kg, normal saline control group, high-dose group of doxepin as a positive drug (25 mg/kg), and low-dose group of doxepin as a positive drug (1 mg/kg).

ICR mice [2] = assay: Sleeping-inducing test of pentobarbital sodium at the subthreshold dose; details: 2 mg/kg, 14 days; pentobarbital sodium 35 mg/kg ip
KM mice = assay: Light-dark box test in mice (anti-anxiety test); details: 2.5 mg/kg/d gavage, 7 days, test 1 h after administration on Day 8
Description: Mice were randomly divided into 5 groups, i.e. high-dose group (14 mg/kg/d), medium-dose group (7 mg/kg/d), low-dose group (3.5 mg/kg/d) of Albiflorin, diazepam group (2.5 mg/kg/d), NS group. Gavage administration was performed once a day, for consecutive 7 days. During the administration, animals had free access to feed and water. The test was carried out 1 hour after the administration on Day 8.
Within the light-dark box (44 cm×21 cm×21 cm), the dark box accounts for one third thereof, with a cover on the top; while the light box accounts for two thirds thereof, providing illumination brightness; and there is a hole between the two boxes for animal to pass through. In the test, mice were placed in the center of the light box, back to the dark box, and then observed. The times of entering into the dark box followed by returning to the light box in mice were counted, as an index for the assession of anti-anxiety effect of a drug.

ICR mice [3] = assay: Sleep-prolonging test of pentobarbital sodium at the suprathreshold dose; details: 10 days, pentobarbital sodium 51 mg/kg ip
Description: (§2) If the mice were kept in a supine position for more than 1 min, it would be considered that the righting reflex was disappeared in mice. After spontaneously rolling over, the mice were immediately placed in a supine position. If the mice could roll over within 1 min, it would be considered that the righting reflex was recovered. The time of the righting reflex being disappeared and recovered in mice were recorded. The period from the mice being intraperitoneally injected with pentobarbital sodium until the righting reflex being disappeared in mice was recorded as sleep latency. The period from the righting reflex being disappeared in mice until the righting reflex being recovered in mice was recorded as sleep duration. The sleep duration of more than 5 min in mice was considered as being asleep.
(§3) The mice were administered with drugs for consecutive 10 days. 1 h after the last administration, the mice were intraperitoneally injected with the suprathreshold dose of pentobarbital sodium (51 mg/kg, 0.1 ml/10 g). The righting reflex being disappeared and recovered in mice were observed, and the time of the righting reflex being disappeared and recovered in mice were recorded. The evaluation criteria of sleep latency, sleep duration and sleep rate were the same as those in Section 7.2.1.

ICR mice [4] = assay: Sleeping-inducing test of pentobarbital sodium at the subthreshold dose; details: 14 days, pentobarbital sodium 35 mg/kg ip
Description: as §1, §2
as §3, with “consecutive 14” for “consecutive 10”, “the subthreshold” for “the suprathreshold”, “sodium (35” for “sodium (51”

For CNCCC(Oc1ccc(C(F)(F)F)cc1)c1ccccc1 (centres unmarked) [Positive Drug, fluoxetine hydrochloride], the “mRNA expression of 5-HT1A receptor (ratio IOD5-HTR/IODActin)” value (5-HT1A receptor) was 0.63 ± 0.21.

In the case of CN1C(=O)CN=C(c2ccccc2)c2cc(Cl)ccc21 [Diazepam], the “Times of Spontaneous Action” value (ICR mice [1]; 2 mg/kg) is reported as 301.85 ± 103.11, the “Number of Sleeping Mice/Group” value (ICR mice [2]) is reported as 12 and the “Sleep Rate” value (ICR mice [2]) is reported as 12/13*. The “Times of Returning from Dark Box back to Light Box” value (KM mice) was 13.6 ± 3.35.

With C[C@@]12C[C@@]3(O)O[C@@H](O1)[C@]1(COC(=O)c4ccccc4)[C@H]3C[C@@]12O[C@@H]1O[C@H](CO)[C@@H](O)[C@H](O)[C@H]1O [Paeoniflorin, paeoniflorin] the “Times of Spontaneous Action” value (ICR mice [1]; 12.5 mg/kg) was 456.71 ± 93.95, the “Times of Spontaneous Action” value (ICR mice [1]; 25 mg/kg) was 468.71 ± 73.56 and the “Times of Spontaneous Action” value (ICR mice [1]; 50 mg/kg) was 503.00 ± 137.04. The “Times of Spontaneous Action” value (ICR mice [1]; 100 mg/kg) was 434.45 ± 76.43, the “Sleep Duration” value (ICR mice [3]; 12.5 mg/kg) was 74.57 ± 13.02 min and the “Sleep Latency” value (ICR mice [3]; 12.5 mg/kg) was 4.11 ± 1.52 min. The “Sleep Duration” value (ICR mice [3]; 25 mg/kg) was 68.64 ± 19.23 min, the “Sleep Latency” value (ICR mice [3]; 25 mg/kg) was 4.96 ± 2.18 min and the “Sleep Duration” value (ICR mice [3]; 50 mg/kg) was 73.70 ± 27.88 min. The “Sleep Latency” value (ICR mice [3]; 50 mg/kg) was 5.17 ± 1.37 min, the “Sleep Duration” value (ICR mice [3]; 100 mg/kg) was 72.98 ± 20.83 min and the “Sleep Latency” value (ICR mice [3]; 100 mg/kg) was 28.10 ± 44.63 min. The “Number of Sleeping Mice/Group” value (ICR mice [4]; 12.5 mg/kg) was 2, the “Sleep Rate” value (ICR mice [4]; 12.5 mg/kg) was 2/13 and the “Number of Sleeping Mice/Group” value (ICR mice [4]; 25 mg/kg) was 4. The “Sleep Rate” value (ICR mice [4]; 25 mg/kg) was 1/3, the “Number of Sleeping Mice/Group” value (ICR mice [4]; 50 mg/kg) was 5 and the “Sleep Rate” value (ICR mice [4]; 50 mg/kg) was 5/12. The “Number of Sleeping Mice/Group” value (ICR mice [4]; 100 mg/kg) was 3 and the “Sleep Rate” value (ICR mice [4]; 100 mg/kg) was 3/11.

With CN(C)CCC=C1c2ccccc2COc2ccccc21.Cl [Doxepin, Doxepin Hydrochloride] the “Times of Spontaneous Action” value (ICR mice [1]; 1 mg/kg) was 420.50 ± 110.28, the “Sleep Duration” value (ICR mice [3]; 1 mg/kg) was 74.91 ± 16.55 min and the “Sleep Latency” value (ICR mice [3]; 1 mg/kg) was 4.38 ± 1.60 min. The “Sleep Duration” value (ICR mice [3]; 25 mg/kg) was 63.60 ± 12.09 min, the “Sleep Latency” value (ICR mice [3]; 25 mg/kg) was 4.72 ± 2.40 min and the “Number of Sleeping Mice/Group” value (ICR mice [4]; 1 mg/kg) was 1. For the same compound, the “Sleep Rate” value (ICR mice [4]; 1 mg/kg) was 1/12.
